Results on eight molecules are retold here after ChEMBL document CHEMBL2417377, “Hit-to-lead optimization and kinase selectivity of imidazo[1,2-a]quinoxalin-4-amine derived JNK1 inhibitors” (Bioorg Med Chem Lett, 2013).

Usually inhibition stands for how much of the control response was suppressed. Lower therefore signals little suppression.

Holding throughout (conditions): PC-3
Assay [1] deals with Dual specificity mitogen-activated protein kinase kinase 1 (Homo sapiens) (UniProt Q02750). As to the kind of experiment: Inhibition of MAP2K1 in human PC3 cell lysates at 10 uM using desthiobiotin-tagged ATP probe AX9989 followed by trypsinization by LC/MS analysis.
Chain of Dual specificity mitogen-activated protein kinase kinase 1 (Homo sapiens) (Q02750 whole entry): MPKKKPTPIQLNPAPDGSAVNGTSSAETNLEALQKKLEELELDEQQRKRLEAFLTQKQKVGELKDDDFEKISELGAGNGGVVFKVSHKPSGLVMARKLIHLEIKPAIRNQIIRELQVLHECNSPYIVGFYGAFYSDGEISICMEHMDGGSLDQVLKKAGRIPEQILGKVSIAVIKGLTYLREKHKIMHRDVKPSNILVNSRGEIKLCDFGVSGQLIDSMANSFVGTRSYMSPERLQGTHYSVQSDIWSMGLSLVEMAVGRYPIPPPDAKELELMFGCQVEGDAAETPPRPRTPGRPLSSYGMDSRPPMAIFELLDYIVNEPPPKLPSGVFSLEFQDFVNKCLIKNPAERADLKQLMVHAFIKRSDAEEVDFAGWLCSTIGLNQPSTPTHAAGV
Assay [2] concerns the target Serine/threonine-protein kinase 10 (Homo sapiens) (UniProt O94804). As to the kind of experiment: Inhibition of LOK in human PC3 cell lysates at 10 uM using desthiobiotin-tagged ATP probe AX9989 followed by trypsinization by LC/MS analysis.
Assay [3] has as its target Epidermal growth factor receptor (Homo sapiens) (UniProt P00533). As to the kind of experiment: Inhibition of EGFR in human PC3 cell lysates at 10 uM using desthiobiotin-tagged ATP probe AX9989 followed by trypsinization by LC/MS analysis.
The target of assay [4] is T1, Eukaryotic elongation factor 2 kinase (Homo sapiens) (UniProt O00418).
T1 sequence (whole entry): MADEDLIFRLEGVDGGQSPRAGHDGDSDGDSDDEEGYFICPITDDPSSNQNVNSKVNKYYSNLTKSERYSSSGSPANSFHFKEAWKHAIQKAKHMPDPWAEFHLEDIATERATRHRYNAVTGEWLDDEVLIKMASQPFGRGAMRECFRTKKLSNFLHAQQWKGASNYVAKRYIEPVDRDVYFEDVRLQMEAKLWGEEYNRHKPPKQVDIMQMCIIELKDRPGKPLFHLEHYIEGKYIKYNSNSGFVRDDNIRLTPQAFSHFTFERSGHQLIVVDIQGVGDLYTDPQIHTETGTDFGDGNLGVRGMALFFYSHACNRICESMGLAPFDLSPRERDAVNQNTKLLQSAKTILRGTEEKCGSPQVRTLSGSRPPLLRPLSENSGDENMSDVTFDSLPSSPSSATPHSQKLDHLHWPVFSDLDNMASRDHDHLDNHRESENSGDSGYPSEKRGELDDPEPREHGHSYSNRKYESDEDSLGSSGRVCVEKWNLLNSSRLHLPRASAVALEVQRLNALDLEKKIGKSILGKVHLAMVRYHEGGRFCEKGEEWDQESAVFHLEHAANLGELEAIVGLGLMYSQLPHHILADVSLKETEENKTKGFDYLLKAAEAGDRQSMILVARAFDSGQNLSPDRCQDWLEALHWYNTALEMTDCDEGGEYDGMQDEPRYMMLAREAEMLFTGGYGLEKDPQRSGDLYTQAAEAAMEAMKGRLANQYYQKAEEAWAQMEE
As to the kind of experiment: Inhibition of eEF2K in human PC3 cell lysates at 10 uM using desthiobiotin-tagged ATP probe AX9989 followed by trypsinization by LC/MS analysis.

Assay [5] addresses Tyrosine-protein kinase CSK (Homo sapiens) (UniProt P41240). Description: Inhibition of CSK in human PC3 cell lysates at 10 uM using desthiobiotin-tagged ATP probe AX9989 followed by trypsinization by LC/MS analysis.
Assay [6] concerns the target Serine/threonine-protein kinase ATR (Homo sapiens) (UniProt Q13535). As to the kind of experiment: Inhibition of ATR in human PC3 cell lysates at 10 uM using desthiobiotin-tagged ATP probe AX9989 followed by trypsinization by LC/MS analysis.
Assay [7] has as its target IKK epsilon/TBK1 (Homo sapiens) (UniProt Q14164+Q9UHD2). Description: Inhibition of IKKepsilon/TBK1 in human PC3 cell lysates at 10 uM using desthiobiotin-tagged ATP probe AX9989 followed by trypsinization by LC/MS analysis. The class given is protein-complex assay.
The target in assay [8] is Serine/threonine-protein kinase 16 (Homo sapiens) (UniProt O75716). As to the kind of experiment: Inhibition of MPSK1 in human PC3 cell lysates at 10 uM using desthiobiotin-tagged ATP probe AX9989 followed by trypsinization by LC/MS analysis.
Chain of Serine/threonine-protein kinase 16 (Homo sapiens) (O75716 whole entry): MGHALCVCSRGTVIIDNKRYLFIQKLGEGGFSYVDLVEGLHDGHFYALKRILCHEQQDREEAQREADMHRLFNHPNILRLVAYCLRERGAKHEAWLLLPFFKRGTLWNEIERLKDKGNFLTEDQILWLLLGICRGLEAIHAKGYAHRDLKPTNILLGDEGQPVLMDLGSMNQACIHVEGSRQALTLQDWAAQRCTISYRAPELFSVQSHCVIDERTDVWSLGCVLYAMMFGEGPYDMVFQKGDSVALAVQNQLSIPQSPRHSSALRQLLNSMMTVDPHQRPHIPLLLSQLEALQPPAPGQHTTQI
Assay [9] has as its target eIF-2-alpha kinase GCN2 (Homo sapiens) (UniProt Q9P2K8). As to the kind of experiment: Inhibition of GCN2 in human PC3 cell lysates at 10 uM using desthiobiotin-tagged ATP probe AX9989 followed by trypsinization by LC/MS analysis.
Assay [10] has as its target T2, Serine/threonine-protein kinase tousled-like 1 (Homo sapiens) (UniProt Q9UKI8).
T2 sequence (whole entry): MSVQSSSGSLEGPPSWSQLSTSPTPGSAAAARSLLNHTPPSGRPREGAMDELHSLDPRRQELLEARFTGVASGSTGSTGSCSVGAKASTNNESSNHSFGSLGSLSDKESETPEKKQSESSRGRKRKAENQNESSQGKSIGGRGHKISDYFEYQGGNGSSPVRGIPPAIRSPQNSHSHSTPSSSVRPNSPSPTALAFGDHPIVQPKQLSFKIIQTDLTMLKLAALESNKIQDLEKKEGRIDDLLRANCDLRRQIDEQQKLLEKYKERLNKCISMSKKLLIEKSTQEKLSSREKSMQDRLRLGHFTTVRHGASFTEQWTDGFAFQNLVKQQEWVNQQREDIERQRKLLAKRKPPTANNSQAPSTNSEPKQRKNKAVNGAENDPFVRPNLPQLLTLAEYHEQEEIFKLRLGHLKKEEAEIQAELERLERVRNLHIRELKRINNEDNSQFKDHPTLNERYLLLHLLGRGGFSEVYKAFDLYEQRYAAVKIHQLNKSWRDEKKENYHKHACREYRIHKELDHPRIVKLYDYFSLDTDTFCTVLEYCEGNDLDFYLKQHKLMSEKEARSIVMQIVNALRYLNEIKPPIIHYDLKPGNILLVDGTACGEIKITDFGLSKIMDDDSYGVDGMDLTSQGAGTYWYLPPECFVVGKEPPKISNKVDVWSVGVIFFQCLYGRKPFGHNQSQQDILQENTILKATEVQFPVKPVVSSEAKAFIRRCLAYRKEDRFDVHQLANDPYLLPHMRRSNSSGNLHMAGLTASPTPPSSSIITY
Description: Inhibition of TLK1 in human PC3 cell lysates at 10 uM using desthiobiotin-tagged ATP probe AX9989 followed by trypsinization by LC/MS analysis.

Assay [11] concerns the target Rho-associated protein kinase 1 (Homo sapiens) (UniProt Q13464). As to the kind of experiment: Inhibition of ROCK1 in human PC3 cell lysates at 10 uM using desthiobiotin-tagged ATP probe AX9989 followed by trypsinization by LC/MS analysis.
Assay [12] addresses Microtubule-associated serine/threonine-protein kinase 3 (Homo sapiens, UniProt O60307). As to the kind of experiment: Inhibition of MAST3 in human PC3 cell lysates at 10 uM using desthiobiotin-tagged ATP probe AX9989 followed by trypsinization by LC/MS analysis.
The target of assay [13] is Mitogen-activated protein kinase 14 (Homo sapiens) (UniProt Q16539). As to the kind of experiment: Inhibition of p38alpha in human PC3 cell lysates at 10 uM using desthiobiotin-tagged ATP probe AX9989 followed by trypsinization by LC/MS analysis.
Assay [14] concerns the target Serine/threonine-protein kinase 26 (Homo sapiens) (UniProt Q9P289). Description: Inhibition of MST4 in human PC3 cell lysates at 10 uM using desthiobiotin-tagged ATP probe AX9989 followed by trypsinization by LC/MS analysis.
Assay [15] concerns the target Casein kinase II subunit alpha' (Homo sapiens) (UniProt P19784). As to the kind of experiment: Inhibition of CK2alpha2 in human PC3 cell lysates at 10 uM using desthiobiotin-tagged ATP probe AX9989 followed by trypsinization by LC/MS analysis.

Bounds are passed on as bounds.

Chain of Serine/threonine-protein kinase 26 (Homo sapiens) (Q9P289 2-416 limits assumed): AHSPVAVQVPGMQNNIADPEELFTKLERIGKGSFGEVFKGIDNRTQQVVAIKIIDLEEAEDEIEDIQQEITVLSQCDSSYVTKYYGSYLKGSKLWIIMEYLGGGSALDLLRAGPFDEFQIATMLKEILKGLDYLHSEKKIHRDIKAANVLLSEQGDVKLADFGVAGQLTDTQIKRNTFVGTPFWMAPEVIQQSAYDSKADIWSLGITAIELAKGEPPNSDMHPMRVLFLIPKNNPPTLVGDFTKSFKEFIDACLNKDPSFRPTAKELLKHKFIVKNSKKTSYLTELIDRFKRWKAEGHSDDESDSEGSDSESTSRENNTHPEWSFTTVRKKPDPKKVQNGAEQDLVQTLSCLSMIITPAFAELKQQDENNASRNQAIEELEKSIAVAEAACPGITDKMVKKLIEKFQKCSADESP
Chain of Casein kinase II subunit alpha' (Homo sapiens) (P19784 whole entry, looked up): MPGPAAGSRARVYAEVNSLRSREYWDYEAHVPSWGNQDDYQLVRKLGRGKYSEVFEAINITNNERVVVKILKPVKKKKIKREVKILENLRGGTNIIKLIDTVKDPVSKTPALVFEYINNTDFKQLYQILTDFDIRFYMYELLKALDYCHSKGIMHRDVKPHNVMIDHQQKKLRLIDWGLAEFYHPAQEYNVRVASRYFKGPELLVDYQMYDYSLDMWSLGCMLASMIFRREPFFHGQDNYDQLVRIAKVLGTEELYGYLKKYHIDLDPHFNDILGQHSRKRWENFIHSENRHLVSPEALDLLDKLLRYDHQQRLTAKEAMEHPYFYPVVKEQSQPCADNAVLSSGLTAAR
Chain of eIF-2-alpha kinase GCN2 (Homo sapiens) (Q9P2K8 whole entry): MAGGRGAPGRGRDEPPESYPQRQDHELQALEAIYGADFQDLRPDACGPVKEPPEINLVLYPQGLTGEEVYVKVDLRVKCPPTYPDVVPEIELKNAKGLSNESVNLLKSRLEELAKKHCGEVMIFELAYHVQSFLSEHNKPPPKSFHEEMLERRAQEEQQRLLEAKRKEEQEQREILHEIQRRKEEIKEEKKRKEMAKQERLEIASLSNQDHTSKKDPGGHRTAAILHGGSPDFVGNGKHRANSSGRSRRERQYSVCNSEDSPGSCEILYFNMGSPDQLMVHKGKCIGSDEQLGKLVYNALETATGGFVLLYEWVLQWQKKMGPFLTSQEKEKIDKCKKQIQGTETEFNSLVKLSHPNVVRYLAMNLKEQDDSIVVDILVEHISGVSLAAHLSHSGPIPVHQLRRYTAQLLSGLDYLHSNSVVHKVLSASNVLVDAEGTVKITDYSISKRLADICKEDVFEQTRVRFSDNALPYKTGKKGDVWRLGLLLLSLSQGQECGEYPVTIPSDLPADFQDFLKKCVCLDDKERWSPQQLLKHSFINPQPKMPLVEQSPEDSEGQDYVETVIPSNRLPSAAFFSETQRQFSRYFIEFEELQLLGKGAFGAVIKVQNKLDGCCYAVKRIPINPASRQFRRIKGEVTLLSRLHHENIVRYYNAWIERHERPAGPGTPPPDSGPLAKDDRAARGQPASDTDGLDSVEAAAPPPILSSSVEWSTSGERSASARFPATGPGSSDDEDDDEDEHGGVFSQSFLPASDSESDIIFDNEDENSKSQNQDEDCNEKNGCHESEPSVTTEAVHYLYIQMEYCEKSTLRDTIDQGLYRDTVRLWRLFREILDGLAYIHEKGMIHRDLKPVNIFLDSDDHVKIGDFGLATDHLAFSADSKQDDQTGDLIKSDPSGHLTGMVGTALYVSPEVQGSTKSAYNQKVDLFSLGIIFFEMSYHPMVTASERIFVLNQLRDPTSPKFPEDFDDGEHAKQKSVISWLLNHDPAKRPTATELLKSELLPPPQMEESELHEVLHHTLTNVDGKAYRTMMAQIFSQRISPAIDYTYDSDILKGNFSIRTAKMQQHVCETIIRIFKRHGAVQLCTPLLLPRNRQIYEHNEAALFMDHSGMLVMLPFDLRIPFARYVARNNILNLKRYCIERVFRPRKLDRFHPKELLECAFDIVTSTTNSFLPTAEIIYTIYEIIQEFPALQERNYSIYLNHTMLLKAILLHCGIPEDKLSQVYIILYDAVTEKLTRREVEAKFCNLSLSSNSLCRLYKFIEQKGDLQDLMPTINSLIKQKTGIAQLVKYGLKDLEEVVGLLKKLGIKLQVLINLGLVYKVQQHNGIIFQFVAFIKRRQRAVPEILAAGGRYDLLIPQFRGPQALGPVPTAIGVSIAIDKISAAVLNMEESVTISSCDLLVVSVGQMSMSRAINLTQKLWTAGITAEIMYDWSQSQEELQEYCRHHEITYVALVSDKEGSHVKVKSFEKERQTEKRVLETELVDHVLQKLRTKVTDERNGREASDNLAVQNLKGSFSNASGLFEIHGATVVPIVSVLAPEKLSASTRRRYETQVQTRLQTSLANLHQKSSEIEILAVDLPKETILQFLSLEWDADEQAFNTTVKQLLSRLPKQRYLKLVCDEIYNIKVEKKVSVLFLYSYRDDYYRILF
Chain of Epidermal growth factor receptor (Homo sapiens) (P00533 whole entry): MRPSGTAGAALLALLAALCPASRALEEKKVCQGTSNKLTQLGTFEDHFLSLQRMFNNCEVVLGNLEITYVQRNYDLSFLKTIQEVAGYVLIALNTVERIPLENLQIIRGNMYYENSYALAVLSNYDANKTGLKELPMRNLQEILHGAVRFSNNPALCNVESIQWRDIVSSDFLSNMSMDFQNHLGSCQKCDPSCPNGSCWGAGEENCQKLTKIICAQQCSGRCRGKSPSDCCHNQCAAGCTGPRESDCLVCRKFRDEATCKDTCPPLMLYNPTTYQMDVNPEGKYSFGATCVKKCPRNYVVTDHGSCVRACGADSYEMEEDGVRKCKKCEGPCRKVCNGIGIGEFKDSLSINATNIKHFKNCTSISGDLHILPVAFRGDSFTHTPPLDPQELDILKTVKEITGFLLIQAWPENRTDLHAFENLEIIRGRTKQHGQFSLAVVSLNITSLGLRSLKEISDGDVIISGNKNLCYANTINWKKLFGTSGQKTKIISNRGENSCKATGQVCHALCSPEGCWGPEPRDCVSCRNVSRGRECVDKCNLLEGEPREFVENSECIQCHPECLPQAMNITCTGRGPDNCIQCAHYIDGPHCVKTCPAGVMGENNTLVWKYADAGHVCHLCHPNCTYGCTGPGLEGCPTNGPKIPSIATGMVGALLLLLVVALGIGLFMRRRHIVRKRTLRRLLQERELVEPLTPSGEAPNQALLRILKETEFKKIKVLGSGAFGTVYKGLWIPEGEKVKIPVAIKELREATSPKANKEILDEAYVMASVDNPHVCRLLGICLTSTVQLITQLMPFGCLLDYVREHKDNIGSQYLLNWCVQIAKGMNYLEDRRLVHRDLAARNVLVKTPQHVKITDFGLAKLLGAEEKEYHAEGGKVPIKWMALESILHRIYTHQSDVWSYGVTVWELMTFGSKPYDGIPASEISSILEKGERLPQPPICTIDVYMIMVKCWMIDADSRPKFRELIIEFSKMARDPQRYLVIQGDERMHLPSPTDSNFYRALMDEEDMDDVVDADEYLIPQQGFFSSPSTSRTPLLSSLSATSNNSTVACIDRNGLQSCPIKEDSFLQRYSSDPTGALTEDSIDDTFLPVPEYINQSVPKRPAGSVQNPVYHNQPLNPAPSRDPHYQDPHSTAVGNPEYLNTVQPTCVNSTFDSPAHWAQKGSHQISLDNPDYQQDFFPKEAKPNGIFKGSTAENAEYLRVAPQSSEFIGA
Chain of Tyrosine-protein kinase CSK (Homo sapiens) (P41240 2-450 limits assumed): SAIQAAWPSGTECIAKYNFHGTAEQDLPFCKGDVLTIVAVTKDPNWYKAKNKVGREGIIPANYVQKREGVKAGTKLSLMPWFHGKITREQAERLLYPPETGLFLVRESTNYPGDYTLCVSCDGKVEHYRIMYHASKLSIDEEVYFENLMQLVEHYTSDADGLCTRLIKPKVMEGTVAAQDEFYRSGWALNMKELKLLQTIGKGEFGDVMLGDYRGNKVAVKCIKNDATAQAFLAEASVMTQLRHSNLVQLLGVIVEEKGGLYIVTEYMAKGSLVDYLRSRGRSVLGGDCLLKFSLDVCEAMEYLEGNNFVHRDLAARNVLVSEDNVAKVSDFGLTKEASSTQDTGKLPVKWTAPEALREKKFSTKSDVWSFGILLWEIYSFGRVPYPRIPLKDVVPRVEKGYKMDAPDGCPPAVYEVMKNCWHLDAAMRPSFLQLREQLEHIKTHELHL

On to `CC[C@@H](NC(=O)c1ccc2nc(N[C@H]3CC[C@H](O)CC3)c3nccn3c2c1)c1ccccc1`, for which the inhibition in assay [1], in assay [2], in assay [3], in assay [4], in [5] and in assay [6] was under 35% each time. The inhibition is under 35% in [7]; under 35% in assay [8]; 38.5% in assay [9]; under 35% in [10]; under 35% in assay [11]; 96.2% in [12]. The inhibition in assay [13], in assay [14] and in assay [15] was under 35% each time.
For the molecule `C[C@@H](NC(=O)c1ccc2nc(N[C@H]3CC[C@H](O)CC3)c3nccn3c2c1)c1ccccc1`, the inhibition in assay [1], in assay [2], in [3], in assay [4], in [5] and in assay [6] was under 35% throughout. Also, the inhibition in assay [7] was 38.7%; in assay [8], under 35%; in assay [9] it was 54%; in assay [10], under 35%; in [11], under 35%; in assay [12], 97%. Besides, the inhibition in assay [13], in [14] and in assay [15] was under 35% in each case.
Take `CCC[C@@H](NC(=O)c1ccc2nc(N[C@H]3CC[C@H](O)CC3)c3nccn3c2c1)c1ccccc1`: the inhibition in [1], in assay [2], in [3], in assay [4], in assay [5] and in assay [6] was under 35% throughout. The inhibition in assay [7] is under 35%; in assay [8], under 35%; in assay [9], under 35%; in assay [10] it was under 35%; in assay [11] it was under 35%; in [12] it was 90.2%. In addition, the inhibition in [13], in [14] and in [15] was under 35% in each case.
In the case of `C[C@H](NC(=O)c1ccc2nc(N[C@H]3CC[C@H](O)CC3)c3nccn3c2c1)c1ccccc1`, the inhibition in assay [1], in [2], in assay [3], in [4], in assay [5] and in [6] was under 35% each time. The inhibition is under 35% in assay [7]; under 35% in [8]; under 35% in [9]; under 35% in assay [10]; under 35% in assay [11]; 76.3% in assay [12]. For the same molecule, the inhibition in assay [13], in assay [14] and in [15] was under 35% in each case.
On to `O=C(NC1(c2ccccc2)CC1)c1ccc2nc(N[C@H]3CC[C@H](O)CC3)c3nccn3c2c1`, for which the inhibition in assay [1], in assay [2], in assay [3], in assay [4], in assay [5] and in assay [6] was under 35% each time. Also, the inhibition was under 35% in assay [7]; under 35% in assay [8]; under 35% in [9]; under 35% in assay [10]; under 35% in assay [11]; 98.9% in assay [12]. Besides, the inhibition in assay [13], in assay [14] and in assay [15] was under 35% throughout.
In the case of `NC(=O)c1ccc2nc(N[C@H]3CC[C@H](O)CC3)c3nccn3c2c1`, the inhibition in assay [1], in [2], in assay [3], in [4], in assay [5] and in assay [6] was under 35% in each case. The inhibition in assay [7] was under 35%; in assay [8] it was 39.1%; in [9], under 35%; in assay [10], under 35%; in assay [11] it was under 35%; in assay [12], under 35%. In addition, the inhibition in assay [13], in assay [14] and in assay [15] was under 35% throughout.
As to `CC(C)(NC(=O)c1ccc2nc(N[C@H]3CC[C@H](O)CC3)c3nccn3c2c1)c1ccccc1`, the inhibition in [1], in [2], in assay [3], in assay [4], in [5] and in [6] was under 35% each time. Also, the inhibition was under 35% in [7]; under 35% in assay [8]; under 35% in assay [9]; under 35% in assay [10]; under 35% in [11]; 99.3% in assay [12]. The inhibition in assay [13], in assay [14] and in assay [15] was under 35% throughout.
As to `O=C(N[C@H](CO)c1ccccc1)c1ccc2nc(N[C@H]3CC[C@H](O)CC3)c3nccn3c2c1`, the inhibition in assay [1], in [2], in assay [3], in assay [4], in assay [5] and in assay [6] was under 35% throughout. Besides, the inhibition in assay [7] is under 35%; in [8], under 35%; in assay [9], 56.4%; in assay [10], under 35%; in assay [11], under 35%; in [12], 97.9%. Further, the inhibition in [13], in assay [14] and in [15] was under 35% each time.
